The species entered for one assay is Homo sapiens. As to the kind of experiment: Ability to inhibit platelet aggregation. Format: functional, organism-based.
Assay [1] concerns the target T1, P2Y purinoceptor 12 (Homo sapiens, UniProt Q9H244). As to the kind of experiment: Ability to displace [3H]2-MeS-ADP from human Purinergic receptor P2Y12. Format: tissue-based.
Assay [2] addresses T1, P2Y purinoceptor 12. The experiment in a line: Compound was evaluated for its ability to inhibit human Purinergic receptor P2Y12 expressed in Xenopus oocyte.

Molecules are shown by their SMILES.

T1 sequence (Q9H244 whole entry): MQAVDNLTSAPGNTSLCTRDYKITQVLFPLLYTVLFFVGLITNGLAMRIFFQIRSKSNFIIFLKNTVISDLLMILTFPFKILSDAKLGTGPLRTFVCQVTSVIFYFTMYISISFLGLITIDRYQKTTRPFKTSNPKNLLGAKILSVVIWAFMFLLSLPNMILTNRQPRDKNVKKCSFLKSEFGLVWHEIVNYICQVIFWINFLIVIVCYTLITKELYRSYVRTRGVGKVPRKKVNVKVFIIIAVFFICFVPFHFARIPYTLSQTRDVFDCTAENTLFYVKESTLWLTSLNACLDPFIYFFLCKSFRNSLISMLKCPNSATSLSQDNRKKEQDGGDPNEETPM

As a reminder, the IC50 is the point on the concentration scale where inhibition reaches its midpoint. Lower therefore signals higher potency. For the compound `O=C1/C(=C(\O)CS(=O)(=O)Nc2nc3ccc(C4CCCCC4)cc3s2)S(=O)(=O)N=C2Sc3cc(C4CCCCC4)ccc3N12`, the IC50 in the assay listed under Homo sapiens and at P2Y purinoceptor 12 [1] was greater than 120 µM each time.
As to `O=C1/C(=C(\O)CS(=O)(=O)Nc2nc3ccc(-c4ccccc4)cc3s2)S(=O)(=O)N=C2Sc3cc(-c4ccccc4)ccc3N12`, the IC50 in the assay listed under Homo sapiens is greater than 24 µM; at P2Y purinoceptor 12 [1], greater than 50 µM.
The corresponding values for `O=C1/C(=C(\O)CS(=O)(=O)Nc2nc3ccc(Cl)cc3s2)S(=O)(=O)N=C2Sc3cc(Cl)ccc3N12` are 64 µM and 35 µM.
The like results for `CCOC(=O)c1ccc2c(c1)SC1=NS(=O)(=O)C(C(=O)CS(=O)(=O)Nc3nc4ccc(C(=O)OCC)cc4s3)=C(O)N12` were, in that order, 0.8 µM and 1.8 µM.
With `O=C1/C(=C(\O)CS(=O)(=O)Nc2nc3ccc([N+](=O)[O-])cc3s2)S(=O)(=O)N=C2Sc3cc([N+](=O)[O-])ccc3N12`, the IC50 in the assay listed under Homo sapiens was 50 µM; at P2Y purinoceptor 12 [1] it was 35 µM.
For `COc1cccc2c1N1C(O)=CS(=O)(=O)N=C1S2`, the IC50 is greater than 120 µM in the assay listed under Homo sapiens and 77 µM on P2Y purinoceptor 12 [1].
`Cc1ccc2c(c1)SC1=NS(=O)(=O)C(C(=O)CS(=O)(=O)Nc3nc4ccc(C)cc4s3)=C(O)N12` gave an IC50 in the assay listed under Homo sapiens of 9.5 µM.
Regarding `O=C1/C(=C(\O)CS(=O)(=O)Nc2nc3ccc(F)cc3s2)S(=O)(=O)N=C2Sc3cc(F)ccc3N12`, the figures for the IC50 in the assay listed under Homo sapiens and on P2Y purinoceptor 12 [1] were greater than 120 µM and 37 µM, respectively.
The like results for `O=C1/C(=C(\O)CS(=O)(=O)Nc2nc3ccc(Oc4ccccc4)cc3s2)S(=O)(=O)N=C2Sc3cc(Oc4ccccc4)ccc3N12` were, in that order, greater than 24 µM and greater than 50 µM.
The like results for `O=C1/C(=C(\O)CS(=O)(=O)Nc2nc3ccccc3s2)S(=O)(=O)N=C2Sc3ccccc3N12` were, in that order, 26 µM and 21 µM.
On to `COc1ccc2c(c1)SC1=NS(=O)(=O)C(C(=O)CS(=O)(=O)Nc3nc4ccc(OC)cc4s3)=C(O)N12`, for which the IC50 in the assay filed under Homo sapiens came out at 1.5 µM.
On to `O=S1(=O)C=C(O)N2C(=N1)Sc1cc(OC(F)(F)F)ccc12`, for which the IC50 in the assay listed under Homo sapiens is greater than 50 µM; on P2Y purinoceptor 12 [1] it was greater than 120 µM.
Turning to `CCOc1ccc2c(c1)SC1=NS(=O)(=O)C(C(=O)CS(=O)(=O)Nc3nc4ccc(OCC)cc4s3)=C(O)N12`, the values for the IC50 in the assay filed under Homo sapiens and at P2Y purinoceptor 12 [2] were 0.18 µM and 0.04 µM, respectively.
Turning to `CS(=O)(=O)c1ccc2c(c1)SC1=NS(=O)(=O)C(C(=O)CS(=O)(=O)Nc3nc4ccc(S(C)(=O)=O)cc4s3)=C(O)N12`, the IC50 in the assay listed under Homo sapiens is 2.9 µM; on P2Y purinoceptor 12 [1], 1.1 µM.

(Values after ChEMBL document CHEMBL1134134, “Novel tricyclic benzothiazolo[2,3-c]thiadiazine antagonists of the platelet ADP receptor (P2Y(12))” (Bioorg Med Chem Lett, 2001).)
